According to US20060287375A1 (priority 2003, published 2006):
Like-named read-outs stand apart in the source and are kept apart here.

Tests used:
Pyricularia oryzae [1] = format: in vivo; settings: paddy rice (Aichi Asahi), wettable powder on water surface, 1,000 g active ingredient per 10 ares; inoculated 10 days after application, examined 5 days after inoculation
Septoria nodorum = test: Test for control effect on Septoria leaf spot of wheat; format: in vivo; settings: wheat seedlings (Nohrin No. 61), wettable powder at 500 ppm, 10 ml per pot; examined 10 days after inoculation
Text: Test for Control Effect on Septoria Leaf Spot of Wheat
In each of plastic pots of 6 cm in diameter were sown 10 wheat seeds (variety: Nohrin No. 61). They were allowed to germinate in a greenhouse. […] After air-drying, the seedlings were inoculated with pycnospores of Septoria nodorum and the pot was placed in a greenhouse. After 10 days from the inoculation, the total diseased area of all the first leaves in the pot was examined.

Pyricularia oryzae [2] = format: in vivo; settings: rice seedlings (Aichi Asahi), wettable powder sprayed at 500 ppm active ingredient, 10 ml per pot; examined 5 days after inoculation
[3] = test system: Pseudoperonospora cubensis; settings: cucumber seedlings (sagami hanjiro), wettable powder at 500 ppm, 15 ml per pot; examined 7 days later
Method: 10 cucumber seeds (variety: sagami hanjiro) were sown in each of vinyl chloride resin made pots of 9 cm×9 cm and were allowed to germinate in a greenhouse for 7 days. The resulting cucumber young seedlings which reached a cotyledon stage were used as a sample plant. […] The plant was air-dried and inoculated, by spraying, with a suspension of conidia of Pseudoperonospora cubensis. Immediately, the pot was placed in a wet house of 20° C. for 24 hours. Then, the pot was transferred into a greenhouse. 7 days later, the total diseased area of all the cotyledons in the pot was examined.

Pyricularia oryzae [4] = format: in vivo; settings: rice (Aichi Asahi), granule applied to seedling-raising box, 12 g active ingredient per box; inoculated 40 days after application, examined 6 days after inoculation
Erysiphe graminis = test: Test for control effect on powdery mildew of wheat; format: in vivo; settings: wheat seedlings (Nohrin No. 61), wettable powder at 500 ppm, 10 ml per pot; inoculated 7 days after application, examined 8 days after inoculation
Text: Test for Control Effect on Powdery Mildew of Wheat
In each of plasic pots of 6 cm in diameter were sown 10 wheat seeds (variety: Nohrin No. 61). They were allowed to germinate in a greenhouse. […] After 7 days from the application, the seedlings were inoculated, by spraying, with conidia of Erysiphe graminis. After 8 days from the inoculation, the total infected area of all the first leaves in the pot was examined.

Compound | Evaluation (preventive value, number of lesions of the upper young leaf) (Pyricularia oryzae [1]) | Evaluation (total diseased area of all the first leaves) (Septoria nodorum) | Evaluation (preventive value, number of lesions of the fourth leaf) (Pyricularia oryzae [2]) | other results
CC(C[N+](=O)[O-])N1C(=S)c2ccccc2S1(=O)=O (stereo not drawn) [compound 40] | B (Less than 100 to 80.0 or more) | B (Less than 25% of untreated plot) | B (Less than 100 to 80.0 or more) | –
CC(C)N1C(=S)c2ccccc2S1(=O)=O [Compound No. 11] | B (Less than 100 to 80.0 or more) | – | – | –
CCCCOC(=O)N1C(=S)c2ccccc2S1(=O)=O [compound 31] | B (Less than 100 to 80.0 or more) | B (Less than 25% of untreated plot) | – | –
COC(=O)N1C(=S)c2ccccc2S1(=O)=O [compound 23] | B (Less than 100 to 80.0 or more) | – | – | –
Cc1nnsc1C(=O)OCN1C(=S)c2ccccc2S1(=O)=O [compound 49] | – | – | B (Less than 100 to 80.0 or more) | –
CC(=O)N1C(=S)c2ccccc2S1(=O)=O [compound 22] | B (Less than 100 to 80.0 or more) | – | – | –
COCCN1C(=S)c2ccccc2S1(=O)=O [compound 53] | – | – | – | Evaluation (total diseased area of all the cotyledons) [3]: B (Less than 25% of untreated plot)
O=C(Oc1ccccc1)N1C(=S)c2ccccc2S1(=O)=O [compound 25] | B (Less than 100 to 80.0 or more) | – | – | –
CC(C)OC(=O)N1C(=S)c2ccccc2S1(=O)=O [compound 24] | B (Less than 100 to 80.0 or more) | – | – | –
COCN1C(=S)c2ccccc2S1(=O)=O [compound 2] | B (Less than 100 to 80.0 or more) | – | B (Less than 100 to 80.0 or more) | Evaluation (preventive value, number of lesions of the upper young leaf) (Pyricularia oryzae [4]): B (Less than 100 to 80.0 or more); Evaluation (total infected area of all the first leaves) (Erysiphe graminis): B (Less than 25% of untreated plot); Evaluation (total diseased area of all the cotyledons) [3]: B (Less than 25% of untreated plot)
C=CCOC(=O)N1C(=S)c2ccccc2S1(=O)=O [compound 7] | B (Less than 100 to 80.0 or more) | B (Less than 25% of untreated plot) | B (Less than 100 to 80.0 or more) | –
O=C(Oc1ccc(Cl)cc1)N1C(=S)c2ccccc2S1(=O)=O [compound 10] | B (Less than 100 to 80.0 or more) | B (Less than 25% of untreated plot) | – | –
N#CSCN1C(=S)c2ccccc2S1(=O)=O [compound 48] | – | B (Less than 25% of untreated plot) | B (Less than 100 to 80.0 or more) | Evaluation (total diseased area of all the cotyledons) [3]: B (Less than 25% of untreated plot)
O=[N+]([O-])CN1C(=S)c2ccccc2S1(=O)=O [compound 20] | B (Less than 100 to 80.0 or more) | – | – | –
O=C(OCN1C(=S)c2ccccc2S1(=O)=O)c1cc(Cl)nc(Cl)c1 [compound 47] | B (Less than 100 to 80.0 or more) | – | – | Evaluation (preventive value, number of lesions of the upper young leaf) (Pyricularia oryzae [4]): B (Less than 100 to 80.0 or more)
CSCN1C(=S)c2ccccc2S1(=O)=O [compound 17] | B (Less than 100 to 80.0 or more) | – | – | –
C=CCOC1=NS(=O)(=O)c2ccccc21 [Probenazole, reference compound] | B (Less than 100 to 80.0 or more) | – | – | Evaluation (preventive value, number of lesions of the upper young leaf) (Pyricularia oryzae [4]): B (Less than 100 to 80.0 or more)

Compound | Evaluation (preventive value, number of lesions of the upper young leaf) (Pyricularia oryzae [1]) | Evaluation (total diseased area of all the first leaves) (Septoria nodorum) | Evaluation (preventive value, number of lesions of the fourth leaf) (Pyricularia oryzae [2]) | other results
O=S1(=O)c2ccccc2C(=S)N1C1CCCC1 [compound 29] | – | B (Less than 25% of untreated plot) | – | –
O=S1(=O)c2ccccc2C(=S)N1CC=CCl [Compound No. 50] | – | B (Less than 25% of untreated plot) | – | Evaluation (total diseased area of all the cotyledons) [3]: B (Less than 25% of untreated plot)
N#CCN1C(=S)c2ccccc2S1(=O)=O [compound 19] | B (Less than 100 to 80.0 or more) | – | – | –
CCOC(=O)N1C(=S)c2ccccc2S1(=O)=O [Compound No. 5, 2-ethoxycarbonyl-1,2-benzisothiazoline-3-thioxo-1,1-dioxide] | B (Less than 100 to 80.0 or more) | B (Less than 25% of untreated plot) | B (Less than 100 to 80.0 or more) | Evaluation (preventive value, number of lesions of the upper young leaf) (Pyricularia oryzae [4]): B (Less than 100 to 80.0 or more)
CC(C)COC(=O)N1C(=S)c2ccccc2S1(=O)=O [compound 9] | B (Less than 100 to 80.0 or more) | B (Less than 25% of untreated plot) | B (Less than 100 to 80.0 or more) | Evaluation (total diseased area of all the cotyledons) [3]: B (Less than 25% of untreated plot)
CON1C(=S)c2ccccc2S1(=O)=O [compound 43, 2-methoxy-1,2-benzisothiazoline-3-thioxo-1,1-dioxide] | B (Less than 100 to 80.0 or more) | – | B (Less than 100 to 80.0 or more) | –
CCOCN1C(=S)c2ccccc2S1(=O)=O [compound 3, 2-ethoxymethyl-1,2-benzisothiazoline-3-thioxo-1,1-dioxide] | B (Less than 100 to 80.0 or more) | – | B (Less than 100 to 80.0 or more) | Evaluation (preventive value, number of lesions of the upper young leaf) (Pyricularia oryzae [4]): B (Less than 100 to 80.0 or more)
O=C(OCN1C(=S)c2ccccc2S1(=O)=O)c1ccccc1 [compound 46, 2-benzoyloxymethyl-1,2-benzisothiazoline-3-thioxo-1,1-dioxide] | B (Less than 100 to 80.0 or more) | – | B (Less than 100 to 80.0 or more) | –
CCC(=O)N1C(=S)c2ccccc2S1(=O)=O [compound 27] | – | – | B (Less than 100 to 80.0 or more) | –
O=S1(=O)c2ccccc2C(=S)N1CCl [compound 45] | B (Less than 100 to 80.0 or more) | – | A (100) | –
CCOC(=O)C(C(=O)OCC)N1C(=S)c2ccccc2S1(=O)=O [compound 42] | – | – | – | Evaluation (total diseased area of all the cotyledons) [3]: B (Less than 25% of untreated plot)
O=C(OCCCl)N1C(=S)c2ccccc2S1(=O)=O [compound 30] | – | B (Less than 25% of untreated plot) | B (Less than 100 to 80.0 or more) | –
O=[N+]([O-])CCN1C(=S)c2ccccc2S1(=O)=O [compound 39] | B (Less than 100 to 80.0 or more) | B (Less than 25% of untreated plot) | B (Less than 100 to 80.0 or more) | –
C#CCOC(=O)N1C(=S)c2ccccc2S1(=O)=O [compound 8] | B (Less than 100 to 80.0 or more) | – | B (Less than 100 to 80.0 or more) | Evaluation (total infected area of all the first leaves) (Erysiphe graminis): B (Less than 25% of untreated plot)
O=S1(=O)c2ccccc2C(=S)N1CBr [compound 44, 2-bromomethyl-1,2-benzisothiazoline-3-thioxo-1,1-dioxide] | B (Less than 100 to 80.0 or more) | B (Less than 25% of untreated plot) | B (Less than 100 to 80.0 or more) | –
CCCOC(=O)N1C(=S)c2ccccc2S1(=O)=O [compound 6] | B (Less than 100 to 80.0 or more) | B (Less than 25% of untreated plot) | A (100) | Evaluation (total diseased area of all the cotyledons) [3]: B (Less than 25% of untreated plot)
